target: T1, recombinant human cGAS (aa147-522) (Homo sapiens, UniProt Q8N884); assay: In vitro inhibition assay of cGAS activity (ATP consumption, KinaseGlo Max); type: biochemical; settings: Table 2, read-out: cGAS Inhibition Results IC50
T1 construct: recombinant human cGAS (aa147-522); His6-SUMO (cleaved yes); made in house; host or cells: E. coli BL21/pLys
In short: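 IC50 came from plotting % ATP consumption against log compound concentration, with leftover ATP detected by KinaseGlo Max chemiluminescence. Reactions ran 20 min at 37 °C with 1.5 μg/mL human cGAS (aa147-522), 6.6 μM ATP, 0.1 mM GTP and 0.01 mg/mL DNA at pH 7.5.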

T1 sequence (Q8N884 147-522): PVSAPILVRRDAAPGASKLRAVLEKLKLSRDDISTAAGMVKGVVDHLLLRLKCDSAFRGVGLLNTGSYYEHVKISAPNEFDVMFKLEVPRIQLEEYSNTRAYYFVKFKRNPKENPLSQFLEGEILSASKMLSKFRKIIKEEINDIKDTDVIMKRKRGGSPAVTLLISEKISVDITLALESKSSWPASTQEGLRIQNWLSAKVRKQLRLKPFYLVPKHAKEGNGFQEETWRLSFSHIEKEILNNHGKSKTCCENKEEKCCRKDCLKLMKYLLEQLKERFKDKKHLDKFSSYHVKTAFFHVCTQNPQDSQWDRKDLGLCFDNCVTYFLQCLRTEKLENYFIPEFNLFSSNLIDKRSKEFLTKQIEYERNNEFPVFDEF

Row | SMILES | IC50
1 | Clc1ccc2c(-n3ccnc3)cc(OCCN3CCOCC3)nc2c1 [I-279] | > 30000 nM
2 | O=C(CO)N[C@@H]1C[C@@H](C(=O)O)N(c2cc(-n3ccnc3)c3ccc(Cl)c(Cl)c3n2)C1 [I-346] | < 2000 nM
3 | NC(=O)NC1CCCN(c2cc(-n3ccnc3)c3ccc(Cl)cc3n2)C1 (centres unmarked) [I-104, 1-(1-(7-chloro-4-(1H-imidazol-1-yl)quinolin-2-yl)piperidin-3-yl)urea] | 2000 to 30000 nM
4 | CN(CCNS(=O)(=O)c1cncn1C)c1cc(-n2ccnc2)c2ccc(Cl)cc2n1 [I-232] | 2000 to 30000 nM
5 | Cn1cc(S(=O)(=O)NC2CCCN(c3cc(-n4ccnc4)c4ccc(Cl)cc4n3)C2)cn1 (centres unmarked) [I-109] | > 30000 nM
6 | CC(C)(C)OC(=O)N1CCOC(CNc2cc(-c3cn[nH]c3)c3ccc(Cl)c(Cl)c3n2)C1 (centres unmarked) [I-399] | 2000 to 30000 nM
7 | OC[C@H]1CCCN1c1cc(-n2ccnc2)c2ccc(Cl)c(Cl)c2n1 [I-141] | < 2000 nM
8 | Cc1ccc(-c2cc(-n3ccnc3)c3ccc(Br)cc3n2)cc1 [I-385] | 2000 to 30000 nM
9 | NS(=O)(=O)C1CCN(c2cc(-n3ccnc3)c3ccc(Cl)c(Cl)c3n2)C1 (centres unmarked) [I-150] | < 2000 nM
10 | O=C(O)[C@@H]1CCCN1C(=O)C[C@@H]1CCCN1c1cc(-c2cn[nH]c2)c2ccc(Cl)c(Cl)c2n1 [I-325] | < 2000 nM
11 | CS(=O)(=O)N[C@@H]1C[C@@H](C(=O)O)N(c2cc(-n3ccnc3)c3ccc(Cl)c(Cl)c3n2)C1 [I-351] | < 2000 nM
12 | O=C(O)CCNC(=O)[C@@H]1CCCN1c1cc(-n2ccnc2)c2ccc(Cl)c(Cl)c2n1 [I-324] | < 2000 nM
13 | Fc1ccc(Cc2cc(-n3ccnc3)c3ccc(Br)cc3n2)cc1 [I-275] | > 30000 nM
14 | CN(CCNS(=O)(=O)C1CC1)c1cc(-n2ccnc2)c2ccc(Cl)cc2n1 [I-226, N-(2-((7-chloro-4-(1H-imidazol-1-yl)quinolin-2-yl)(methyl)amino)ethyl)cyclopropanesulfonamide] | 2000 to 30000 nM
15 | O=C(O)c1cc(O)cc(-c2cc(-n3ccnc3)c3ccc(Cl)cc3n2)c1 [I-26, 3-(7-chloro-4-(1H-imidazol-1-yl)quinolin-2-yl)-5-hydroxybenzoic acid] | < 2000 nM
16 | O=C(O)CCc1cc(-c2cn[nH]c2)c2ccc(Cl)c(Cl)c2n1 [I-270, 3-(7,8-dichloro-4-(1H-pyrazol-4-yl)quinolin-2-yl)propanoic acid] | < 2000 nM
17 | O=C(O)CNC(=O)C[C@@H]1CCCN1c1cc(-n2ccnc2)c2ccc(Cl)c(Cl)c2n1 [I-156, (S)-(2-(1-(7,8-dichloro-4-(1H-imidazol-1-yl)quinolin-2-yl)pyrrolidin-2-yl)acetyl)glycine] | < 2000 nM
18 | NC(=O)C1CN(c2cc(-c3cn[nH]c3)c3ccc(Cl)c(Cl)c3n2)CCO1 (centres unmarked) [I-371] | < 2000 nM
19 | O=C(O)CNc1cc(Cl)c2ccc(Cl)c(Cl)c2n1 [I-171] | > 30000 nM
20 | CC(=O)NCCN(C)c1cc(-n2ccnc2)c2ccc(Cl)cc2n1 [I-236] | 2000 to 30000 nM

Row | SMILES | IC50
21 | CN(CCNS(=O)(=O)c1ccc(C(F)(F)F)cc1)c1cc(-n2ccnc2)c2ccc(Cl)cc2n1 [I-394] | > 30000 nM
22 | CNC(=O)[C@@H]1CCCN1c1cc(-n2ccnc2)c2ccc(Cl)c(Cl)c2n1 [I-450] | 2000 to 30000 nM
23 | CN(CC(N)=O)c1cc(-n2ccnc2)c2ccc(Cl)c(Cl)c2n1 [I-179] | 2000 to 30000 nM
24 | O=C(O)c1cc(Br)cc(-c2cc(-n3ccnc3)c3ccc(Cl)cc3n2)c1 [I-27] | > 30000 nM
25 | CC(=O)OCC(=O)N1CCOC(CNc2cc(-c3cn[nH]c3)c3ccc(Cl)c(Cl)c3n2)C1 (centres unmarked) [I-400] | 2000 to 30000 nM
26 | NC(=O)c1cccc(-c2cc(-n3ccnc3)c3ccc(Cl)cc3n2)c1 [I-7, 3-(7-chloro-4-(1H-imidazol-1-yl)quinolin-2-yl)benzamide] | 2000 to 30000 nM
27 | O=C(O)CNc1cc(Cl)nc2c(Cl)c(Cl)ccc12 [I-294] | > 30000 nM
28 | CC(=O)N[C@@H]1C[C@@H](C(=O)O)N(c2cc(-n3ccnc3)c3ccc(Cl)c(Cl)c3n2)C1 [I-347] | < 2000 nM
29 | O=C(O)CCNC(=O)[C@@H]1CN(c2cc(-c3cn[nH]c3)c3ccc(Cl)c(Cl)c3n2)CCO1 [I-342] | < 2000 nM
30 | Oc1c(Br)ccc2c(-n3ccnc3)cc(-c3ccccc3)nc12 [I-53, 7-bromo-4-(1H-imidazol-1-yl)-2-phenylquinolin-8-ol] | 2000 to 30000 nM
31 | O=S(=O)(NC1CCCN(c2cc(-n3ccnc3)c3ccc(Cl)cc3n2)C1)C1CC1 (centres unmarked) [I-100] | < 2000 nM
32 | N#CCCO[PH](=O)OCC1CCCN(c2cc(-c3cn[nH]c3)c3ccc(Cl)c(Cl)c3n2)C1 (centres unmarked) [I-396] | < 2000 nM
33 | CS(=O)(=O)Nc1cccc(-c2cc(-n3ccnc3)c3ccc(Cl)cc3n2)c1 [I-10, N-(3-(7-chloro-4-(1H-imidazol-1-yl)quinolin-2-yl)phenyl)methanesulfonamide] | 2000 to 30000 nM
34 | O=C1NC(=O)/C(=C\c2cc(-n3ccnc3)c3ccc(Cl)c(Cl)c3n2)S1 [I-276, (E)-5-((7,8-dichloro-4-(1H-imidazol-1-yl)quinolin-2-yl)methylene)thiazolidine-2,4-dione] | < 2000 nM
35 | CC(=O)c1cn(-c2cc(-c3ccccc3)nc3cc(Cl)ccc23)cn1 [I-66] | > 30000 nM
36 | Cc1cc(N2CCS(=O)(=O)CC2)c2ccc(Cl)c(Cl)c2n1 [I-303] | > 30000 nM
37 | O=C(O)c1cc(-c2cc(-n3ccnc3)c3ccc(Cl)cc3n2)c[nH]1 [I-56, 4-(7-chloro-4-(1H-imidazol-1-yl)quinolin-2-yl)-1H-pyrrole-2-carboxylic acid] | 2000 to 30000 nM
38 | FC(F)(F)c1cc(-n2ccnc2)c2ccc(Cl)cc2n1 [I-422] | > 30000 nM
39 | COc1c(C(=O)O)cccc1-c1cc(-n2ccnc2)c2ccc(Cl)c(Cl)c2n1 [I-45] | 2000 to 30000 nM
40 | O=C(O)c1ccccc1S(=O)(=O)NC[C@@H]1CCCN1c1cc(-n2ccnc2)c2ccc(Cl)c(Cl)c2n1 [I-391] | < 2000 nM

same assay, conditions: Table 3, read-out: cGAS Inhibition Results IC50

Row | SMILES | IC50
41 | O=C(O)C1CCCN(C(=O)C[C@@H]2CCCN2c2cc(-n3ccnc3)c3ccc(Cl)c(Cl)c3n2)C1 (some centres unmarked) [I-530] | < 2000 nM
42 | O=C(O)c1cccc(S(=O)(=O)NC[C@@H]2CCCN2c2cc(-n3ccnc3)c3ccc(Cl)c(Cl)c3n2)c1 [I-638] | 2000 to 30000 nM
43 | CN(CCN1C(=O)c2ccccc2S1(=O)=O)c1cc(-n2ccnc2)c2ccc(Cl)c(Cl)c2n1 [I-621] | 2000 to 30000 nM
44 | CN(CCN(CCC(=O)O)S(C)(=O)=O)c1cc(-n2ccnc2)c2ccc(Cl)c(Cl)c2n1 [I-634, 3-(N-(2-((7,8-dichloro-4-(1H-imidazol-1-yl)quinolin-2-yl)(methyl)amino)ethyl)methylsulfonamido) propanoic acid] | < 2000 nM
45 | O=C(O)[C@@H]1[C@H]2C[C@H]2CN1c1cc(-n2ccnc2)c2ccc(Cl)c(Cl)c2n1 [I-480] | < 2000 nM
46 | O=C(NS(=O)(=O)C(F)F)[C@@H]1CCCN1c1cc(-n2ccnc2)c2ccc(Cl)c(Cl)c2n1 [I-545] | < 2000 nM
47 | FC(F)(F)[C@@H]1CCCN1c1cc(-n2ccnc2)c2ccc(Cl)c(Cl)c2n1 [I-496] | 2000 to 30000 nM
48 | O=C(O)C1CC2CCC(C1)N2c1cc(-n2ccnc2)c2ccc(Cl)c(Cl)c2n1 (centres unmarked) [I-493] | < 2000 nM
49 | O=C(O)C1CCN(C(=O)[C@@H]2CCCN2c2cc(-n3ccnc3)c3ccc(Cl)c(Cl)c3n2)CC1 [I-548] | < 2000 nM
50 | CN(CCN(Cc1cccc(C(=O)O)c1)S(C)(=O)=O)c1cc(-n2ccnc2)c2ccc(Cl)c(Cl)c2n1 [I-636, 3-((N-(2-((7,8-dichloro-4-(1H-imidazol-1-yl)quinolin-2-yl)(methyl)amino)ethyl)methylsulfonamido)methyl)benzoic acid] | < 2000 nM
51 | O=C1CC2CCC(C1)N2c1cc(-n2ccnc2)c2ccc(Cl)c(Cl)c2n1 [I-488] | < 2000 nM
52 | CN(CCC(=O)O)C(=O)CCN(C)c1cc(-n2ccnc2)c2ccc(Cl)c(Cl)c2n1 [I-564] | < 2000 nM
53 | Cc1cn(-c2cc(N3CCC[C@H]3COCCC(=O)O)nc3c(Cl)c(Cl)ccc23)cn1 [I-825, (S)-3-((1-(7,8-dichloro-4-(4-methyl-1H-imidazol-1-yl)quinolin-2-yl)pyrrolidin-2-yl)methoxy)propanoic acid] | > 30000 nM
54 | O=P(O)(O)CCOC[C@@H]1CCCN1c1cc(-n2ccnc2)c2ccc(Cl)c(Cl)c2n1 [I-763, (S)-(2-((1-(7,8-dichloro-4-(1H-imidazol-1-yl)quinolin-2-yl)pyrrolidin-2-yl)methoxy)ethyl)phosphonic acid] | < 2000 nM
55 | O[C@@H]([C@@H]1CCCN1c1cc(-n2ccnc2)c2ccc(Cl)c(Cl)c2n1)C(F)(F)F [I-654, (S)-1-((S)-1-(7,8-dichloro-4-(1H-imidazol-1-yl)quinolin-2-yl)pyrrolidin-2-yl)-2,2,2-trifluoroethan-1-ol] | < 2000 nM
56 | O=C(O)CO[C@H]1CCN(c2cc(-n3ccnc3)c3ccc(Cl)c(Cl)c3n2)C1 [I-770] | < 2000 nM
57 | C[C@H]1CCN(c2cc(-n3ccnc3)c3ccc(Cl)c(Cl)c3n2)[C@@H]1C(=O)O [I-482] | < 2000 nM
58 | NC(=O)C[C@@H]1CCCN1c1cc(-n2ccnc2)c2ccc(Cl)c(Cl)c2n1 [I-603] | < 2000 nM
59 | O=C(O)c1ccc(S(=O)(=O)NC[C@@H]2CCCN2c2cc(-n3ccnc3)c3ccc(Cl)c(Cl)c3n2)cc1 [I-640] | < 2000 nM
60 | O=C(O)CCO[C@H]1CCN(c2cc(-n3ccnc3)c3ccc(Cl)c(Cl)c3n2)C1 [I-771] | 2000 to 30000 nM
61 | COC(=O)[C@@H]1C[C@@H](O)CN1c1cc(-n2ccnc2)c2ccc(Cl)c(Cl)c2n1 [I-472] | 2000 to 30000 nM
62 | CN(CCS(=O)(=O)NCC(=O)O)c1cc(-n2ccnc2)c2ccc(Cl)c(Cl)c2n1 [I-633] | < 2000 nM
63 | O=C(O)C1CC2CCC1N2c1cc(-n2ccnc2)c2ccc(Cl)c(Cl)c2n1 (centres unmarked) [I-494] | < 2000 nM
64 | O=C(O)[C@@H]1C[C@H](C(F)(F)F)CN1c1cc(-n2ccnc2)c2ccc(Cl)c(Cl)c2n1 [I-508] | < 2000 nM
65 | O=C(O)c1ccnn1C[C@@H]1CCCN1c1cc(-n2ccnc2)c2ccc(Cl)c(Cl)c2n1 [I-727, (S)-1-((1-(7,8-dichloro-4-(1H-imidazol-1-yl)quinolin-2-yl)pyrrolidin-2-yl)methyl)-1H-pyrazole-5-carboxylic acid] | < 2000 nM

— patent publication US11873291B2, “Quinoline cGAS antagonist compounds” (ImmuneSensor Therapeutics, Inc., priority 2020, dated 2024)
